Data taken from patent publication US8993574B2, “Pyrrole antifungal agents” (F2G Ltd, priority 2008, dated 2015).
Converted amounts (≈) assume the structure as drawn.

How the values were obtained:
Assay type in all cases: cell-based
Aspergillus flavus [1] = assay: MIC, YAG medium; conditions: 24 h at 35° C, MIC banded into grades; for MIC: Aspergillus flavus, 24 h, read-out: MIC grade, A. flavus
Experimental: (§1) Between 1 and 5 mgs of compound were accurately weighed out into a sterile Eppendorf tube. The compound was dissolved in DMSO to give a solution containing 5 mg/mL. Tubes were stored at −20° C. until required.
(§2) On the day of testing thawed solutions were vortex mixed to ensure homogeneity. 30 μL of solution was removed and added to 570 μL of sterile water in a separate sterile Eppendorf. The thoroughly mixed solution was used to prepare a series of doubling dilutions in water, in a deep well plate. Thirteen replicate plates were prepared using a Minitrak by aspirating 20 μL from each well into eleven clear polystyrene 96 well plates.
(§3) Spores of Aspergillus spp. (Aspergillus fumigatus [two strains], Aspergillus terreus [two strains], Aspergillus niger and Aspergillus flavus) were harvested from cultures grown on Sabarauds agar for 5 days, and resuspended in PBS/Tween 80 to approx 1×10^7 cfu/mL. Each organism suspension was diluted in YAG medium (1% glucose, 1% ammonium chloride and 0.5% yeast extract) to 0.5−2×10^4 cfu/mL. 80 μL of an organism suspension was added to each well of the plate containing drug dilutions.
(§4) This produced MIC plates with a drug range 50-0.05 mg/L and organism inocula of 1−2×10^4 cfu/mL for Aspergillus spp. All plates were incubated for 24 h at 35° C. Growth was assessed by monitoring the optical density at 485 nm for each well. The MIC of a compound is the lowest drug concentration that inhibits growth of an organism by >70% compared with a drug free control. MICs are recorded as mg/L. In cases where the MIC of an organism is […] mg/L the MIC is repeated using a concentration range of 0.5-0.0005 mg/L.
(§5) The following organisms were tested: Aspergillus flavus, Aspergillus fumigatus AF293 and AF210, Aspergillus niger, Aspergillus terreus AT4 and AT49, Candida albicans, Candida glabrata, Candida krusei, Candida parapsilosis and Candida tropicalis.

[2] = tested on: Aspergillus fumigatus AF210; assay: MIC, YAG medium; conditions: Aspergillus fumigatus, 24 h at 35° C, MIC banded into grades, read-out: MIC grade, A. fumigatus 210
Experimental: as §1, §2, §3, §4, §5

[3] = tested on: Aspergillus fumigatus AF293; assay: MIC, YAG medium; conditions: Aspergillus fumigatus, 24 h at 35° C, MIC banded into grades, read-out: MIC grade, A. fumigatus
Experimental: as §1, §2, §3, §4, §5

Aspergillus niger [4] = assay: MIC, YAG medium; conditions: Aspergillus niger, 24 h at 35° C, MIC banded into grades, read-out: MIC grade, A. niger
Experimental: as §1, §2, §3, §4, §5

Aspergillus terreus AT49 [5] = assay: MIC, YAG medium; conditions: Aspergillus terreus, 24 h at 35° C, MIC banded into grades, read-out: MIC grade, A. terreus 49
Experimental: as §1, §2, §3, §4, §5

Aspergillus terreus AT4 [6] = assay: MIC, YAG medium; conditions: Aspergillus terreus, 24 h at 35° C, MIC banded into grades, read-out: MIC grade, A. terreus
Experimental: as §1, §2, §3, §4, §5

Aspergillus flavus [7] = assay: MIC, RPMI medium; conditions: Aspergillus flavus, MIC banded into grades, read-out: MIC grade, A. flavus
Experimental: as §1, §2
(§6) Assays were also performed in RPMI medium for both Aspergillus spp. (strains described above) and Candida spp. (Candida albicans, Candida glabrata, Candida krusei, Candida parapsilosis and Candida tropicalis). To perform MIC tests in this medium, dilutions of compounds are prepared in microtitre plates as described above. Fungal strains to be tested are grown and harvested in an identical manner to that described above, and each organism suspension was diluted in RPMI medium, containing 2% glucose and 0.135 M MOPS buffer (pH 7.0) to 0.5-2×10^4 cfu/mL, rather than in YAG medium. 80 μL of an organism suspension was added to each well of the plate containing drug dilutions.
(§7) This produced MIC plates with a drug range 50-0.05 mg/L and organism inocula of 1−2×10^4 cfu/mL. All plates were incubated for 24-48 h at 35° C. Growth was assessed by monitoring the optical density at 485 nm for each well. The MIC of a compound is the lowest drug concentration that inhibits growth of an organism by >80% compared with a drug free control.
as §5

[8] = tested on: Aspergillus fumigatus AF210; assay: MIC, RPMI medium; conditions: Aspergillus fumigatus, AF210, MIC banded into grades, read-out: MIC grade, A. fumigatus 210
Experimental: as §1, §2, §6, §7, §5

[9] = tested on: Aspergillus fumigatus AF293; assay: MIC, RPMI medium; conditions: Aspergillus fumigatus, AF293, MIC banded into grades, read-out: MIC grade, A. fumigatus
Experimental: as §1, §2, §6, §7, §5

Aspergillus niger [10] = assay: MIC, RPMI medium; conditions: Aspergillus niger, MIC banded into grades, read-out: MIC grade, A. niger
Experimental: as §1, §2, §6, §7, §5

Aspergillus terreus AT49 [11] = assay: MIC, RPMI medium; conditions: Aspergillus terreus, AT49, MIC banded into grades, read-out: MIC grade, A. terreus 49
Experimental: as §1, §2, §6, §7, §5

Aspergillus terreus AT4 [12] = assay: MIC, RPMI medium; conditions: Aspergillus terreus, AT4, MIC banded into grades, read-out: MIC grade, A. terreus
Experimental: as §1, §2, §6, §7, §5

Question: What does the source list for `Cc1cc(C)nc(N2CCN(c3ccc(NC(=O)C(=O)c4c(-c5ccccc5)cc(C)n4C)cc3O)CC2)c1` [Example 22, 2-(1,5-Dimethyl-3-phenyl-1H-pyrrol-2-yl)-N-{4-[4-(4,6-dimethyl-pyridin-2-yl)-piperazin-1-yl]-3-hydroxy-phenyl}-2-oxo-acetamide]?
Answer: MIC (Aspergillus flavus [1]): < 1 µg/mL; MIC [2]: < 1 µg/mL; MIC [3]: < 1 µg/mL; MIC (Aspergillus niger [4]): < 1 µg/mL; MIC (Aspergillus terreus AT49 [5]): < 1 µg/mL; MIC (Aspergillus terreus AT4 [6]): < 1 µg/mL; MIC (Aspergillus flavus [7]): < 1 µg/mL; MIC [8]: < 1 µg/mL; MIC [9]: < 1 µg/mL; MIC (Aspergillus niger [10]): < 1 µg/mL; MIC (Aspergillus terreus AT49 [11]): < 1 µg/mL; MIC (Aspergillus terreus AT4 [12]): < 1 µg/mL

Question: With `Cc1cc(-c2ccccc2)c(C(=O)C(=O)Nc2cccc3c2CCO3)n1C` [Example 23, N-(2,3-Dihydro-benzofuran-4-yl)-2-(1,5-dimethyl-3-phenyl-1H-pyrrol-2-yl)-2-oxo-acetamide] as the compound, how does the MIC (Aspergillus flavus [1]) read?
Answer: < 1 µg/mL

Question: What about the MIC [2] of the same compound?
Answer: 1 to 10 µg/mL (≈ 2.77 to 27.7 µM)

Question: And the MIC [3]?
Answer: < 1 µg/mL

Question: What about the MIC (Aspergillus niger [4]) of the same compound?
Answer: < 1 µg/mL

Question: And the MIC (Aspergillus terreus AT49 [5])?
Answer: < 1 µg/mL

Question: And the MIC (Aspergillus terreus AT4 [6])?
Answer: < 1 µg/mL

Question: What about the MIC (Aspergillus flavus [7]) of the same compound?
Answer: < 1 µg/mL

Question: And the MIC [8]?
Answer: 1 to 10 µg/mL (≈ 2.77 to 27.7 µM)

Question: And the MIC [9]?
Answer: 1 to 10 µg/mL (≈ 2.77 to 27.7 µM)

Question: And the MIC (Aspergillus niger [10])?
Answer: 1 to 10 µg/mL (≈ 2.77 to 27.7 µM)

Question: And the MIC (Aspergillus terreus AT49 [11])?
Answer: < 1 µg/mL

Question: What about the MIC (Aspergillus terreus AT4 [12]) of the same compound?
Answer: < 1 µg/mL

Question: `COCCn1c(C)cc(-c2ccccc2)c1C(=O)C(=O)Nc1ccc(N2CCN(c3cc(C)cc(C)n3)CC2)c(Cl)c1` [Example 24, N-{3-Chloro-4-[4-(4,6-dimethyl-pyridin-2-yl)-piperazin-1-yl]-phenyl}-2-[1-(2-methoxy-ethyl)-5-methyl-3-phenyl-1H-pyrrol-2-yl]-2-oxo-acetamide] was tested. Which MIC (Aspergillus flavus [1]) did it give?
Answer: < 1 µg/mL

Question: What about the MIC [2] of the same compound?
Answer: < 1 µg/mL

Question: What about the MIC [3] of the same compound?
Answer: < 1 µg/mL

Question: What about the MIC (Aspergillus niger [4]) of the same compound?
Answer: < 1 µg/mL

Question: What about the MIC (Aspergillus terreus AT49 [5]) of the same compound?
Answer: < 1 µg/mL

Question: And the MIC (Aspergillus terreus AT4 [6])?
Answer: < 1 µg/mL

Question: What about the MIC (Aspergillus flavus [7]) of the same compound?
Answer: 1 to 10 µg/mL (≈ 1.71 to 17.1 µM)

Question: And the MIC [8]?
Answer: < 1 µg/mL

Question: And the MIC [9]?
Answer: < 1 µg/mL

Question: What about the MIC (Aspergillus niger [10]) of the same compound?
Answer: < 1 µg/mL

Question: What about the MIC (Aspergillus terreus AT49 [11]) of the same compound?
Answer: > 10 µg/mL

Question: What about the MIC (Aspergillus terreus AT4 [12]) of the same compound?
Answer: 1 to 10 µg/mL (≈ 1.71 to 17.1 µM)

Question: How did the MIC (Aspergillus flavus [1]) turn out when `COCCn1c(C)cc(C(C)C)c1C(=O)C(=O)Nc1ccc(N2CCN(c3cc(C)cc(C)n3)CC2)cc1` [Example 25, N-{4-[4-(4,6-Dimethyl-pyridin-2-yl)-piperazin-1-yl]-phenyl}-2-[3-isopropyl-1-(2-methoxy-ethyl)-5-methyl-1H-pyrrol-2-yl]-2-oxo-acetamide] was run?
Answer: 1 to 10 µg/mL (≈ 1.93 to 19.3 µM)

Question: What about the MIC [2] of the same compound?
Answer: < 1 µg/mL

Question: What about the MIC [3] of the same compound?
Answer: < 1 µg/mL

Question: What about the MIC (Aspergillus niger [4]) of the same compound?
Answer: 1 to 10 µg/mL (≈ 1.93 to 19.3 µM)

Question: What about the MIC (Aspergillus terreus AT49 [5]) of the same compound?
Answer: 1 to 10 µg/mL (≈ 1.93 to 19.3 µM)

Question: And the MIC (Aspergillus terreus AT4 [6])?
Answer: 1 to 10 µg/mL (≈ 1.93 to 19.3 µM)

Question: And the MIC (Aspergillus flavus [7])?
Answer: > 10 µg/mL

Question: What about the MIC [8] of the same compound?
Answer: 1 to 10 µg/mL (≈ 1.93 to 19.3 µM)

Question: And the MIC [9]?
Answer: > 10 µg/mL

Question: What about the MIC (Aspergillus niger [10]) of the same compound?
Answer: 1 to 10 µg/mL (≈ 1.93 to 19.3 µM)

Question: What about the MIC (Aspergillus terreus AT49 [11]) of the same compound?
Answer: > 10 µg/mL

Question: And the MIC (Aspergillus terreus AT4 [12])?
Answer: > 10 µg/mL

Question: What does the source list for `COCCn1c(C)cc(-c2ccccc2)c1C(=O)C(=O)Nc1ccc(N2CCN(c3cc(C)cc(C)n3)CC2)cc1Cl` [Example 26, N-{2-Chloro-4-[4-(4,6-dimethyl-pyridin-2-yl)-piperazin-1-yl]-phenyl}-2-[1-(2-methoxy-ethyl)-5-methyl-3-phenyl-1H-pyrrol-2-yl]-2-oxo-acetamide]?
Answer: MIC grade, A. flavus (Aspergillus flavus [1]): 1 (a grade of 1 represents an MIC of greater than 10 mg/L); MIC [2]: < 1 µg/mL; MIC [3]: < 1 µg/mL; MIC (Aspergillus niger [4]): < 1 µg/mL; MIC (Aspergillus terreus AT49 [5]): < 1 µg/mL; MIC (Aspergillus terreus AT4 [6]): < 1 µg/mL; MIC (Aspergillus flavus [7]): > 10 µg/mL; MIC [8]: < 1 µg/mL; MIC [9]: < 1 µg/mL; MIC (Aspergillus niger [10]): < 1 µg/mL; MIC (Aspergillus terreus AT49 [11]): > 10 µg/mL; MIC (Aspergillus terreus AT4 [12]): > 10 µg/mL

Question: Which MIC (Aspergillus flavus [1]) does the source give for `CCOCCn1c(C)cc(-c2ccccc2)c1C(=O)C(=O)Nc1ccc(N2CCN(c3cc(C)cc(C)n3)CC2)cc1` [Example 27, N-{4-[4-(4,6-Dimethyl-pyridin-2-yl)-piperazin-1-yl]-phenyl}-2-[1-(2-ethoxy-ethyl)-5-methyl-3-phenyl-1H-pyrrol-2-yl]-2-oxo-acetamide] here?
Answer: > 10 µg/mL

Question: What about the MIC [2] of the same compound?
Answer: < 1 µg/mL

Question: What about the MIC [3] of the same compound?
Answer: < 1 µg/mL

Question: What about the MIC (Aspergillus niger [4]) of the same compound?
Answer: 1 to 10 µg/mL (≈ 1.77 to 17.7 µM)

Question: What about the MIC (Aspergillus terreus AT49 [5]) of the same compound?
Answer: 1 to 10 µg/mL (≈ 1.77 to 17.7 µM)

Question: And the MIC (Aspergillus terreus AT4 [6])?
Answer: 1 to 10 µg/mL (≈ 1.77 to 17.7 µM)

Question: What about the MIC (Aspergillus flavus [7]) of the same compound?
Answer: > 10 µg/mL

Question: And the MIC [8]?
Answer: 1 to 10 µg/mL (≈ 1.77 to 17.7 µM)

Question: What about the MIC [9] of the same compound?
Answer: 1 to 10 µg/mL (≈ 1.77 to 17.7 µM)

Question: And the MIC (Aspergillus niger [10])?
Answer: 1 to 10 µg/mL (≈ 1.77 to 17.7 µM)

Question: What about the MIC (Aspergillus terreus AT49 [11]) of the same compound?
Answer: > 10 µg/mL

Question: What about the MIC (Aspergillus terreus AT4 [12]) of the same compound?
Answer: > 10 µg/mL
